This note sets out measurements from patent US12338256B2, “Aza-tetracyclic oxazepine compounds and uses thereof” (Genentech, Inc., priority 2022, dated 2025).

Where two headings read alike, the source gives them in different places.

The test system of experiment [1] is H1975 (KRAS wild type human lung adenocarcinoma cell line). As to the kind of experiment: KRAS 3D-Cell Proliferation Assay, H1975 (Example 503). Type of experiment: cell-based. The conditions noted are these: H1975 3D culture, 7 days, CellTiter-Glo 3D, read-out: Prolif H1975 3D ATP IC50. The protocol:
(§1) Example 503: KRAS 3D-Cell Proliferation Assays. Cellular potencies of compounds are assessed by evaluating inhibition of proliferation in 3D cultures of homozygous mutant KRAS G12D human pancreatic cell lines (AsPC-1 and HPAC) as compared to a KRAS wild type human lung adenocarcinoma cell line (PC-9 and/or H1975). Cells are seeded into 384-well black round-bottom, ultra-low attachment assay plates in 50 uL cell growth medium (RPMI-1640 with 10% fetal bovine serum and 2 mM L-glutamine). After overnight incubation at 37° C. and 5% CO2, compounds solubilized in DMSO are added as dilution series to the wells in a total volume of 150 nL (0.3% DMSO final). The cells are incubated for 7 days at 37° C. and 5% CO2. Cell proliferation is quantitated by addition of 40 uL/well of CellTiter-GloÒ 3D (Promega), and the well contents are mixed 20× at high speed using liquid handling automation workstation (Bravo with 384-well head) and centrifuged at 1500 rpm for 2 minutes to eliminate bubbles. This reagent in combination with mechanical disruption releases the cellular ATP to promote activity in a luciferase-based enzyme/substrate chemiluminescent detection system. After a 30-minute incubation under ambient conditions with shaking and an additional 10 minutes without shaking, the luminescence is read on a plate reader (e.g., EnVision [PerkinElmer]). The results are normalized to percent inhibition based on the following control samples: DMSO (0% inhibition) and 1 μM staurosporine (100% inhibition). The normalized luminescence results are plotted against compound concentration, and the data are fit to a 4-parameter Hill equation to determine the IC50 values.
In general terms: In ATP-based viability assays light output follows the ATP content of the culture.

In experiment [2] the test system is HPAC (homozygous mutant KRAS G12D human pancreatic cell line). As to the kind of experiment: KRAS 3D-Cell Proliferation Assay, HPAC (Example 503). The following applies: HPAC 3D culture, 7 days, CellTiter-Glo 3D, read-out: Prolif HPAC 3D ATP IC50. Type of experiment: cell-based. The protocol: as §1

Usually IC50 stands for the concentration that gives 50% inhibition. For `Cc1c(F)c(N)cc(-c2nc3c4c(nc(OC[C@@H]5CC[C@H]6C[C@@H](F)CN56)nc4c2F)N2C[C@H]4CC[C@H](N4)[C@H]2[C@H](C)O3)c1C(F)(F)F` (single isomer, unassigned) [152 (isomer 1)], the IC50 was determined as 787 nM in experiment [1] (Homo sapiens, NCI-H1975, 168 h) and 17.4 nM in experiment [2] (Homo sapiens, HPAC, 168 h).

For the compound `Cc1c(F)c(N)cc(-c2nc3c4c(nc(OCC5CCC6CC(F)CN56)nc4c2F)N2CC4CCC(N4)C2C(C)O3)c1C(F)(F)F` (single isomer, unassigned) [152 (isomer 2)], the concentration for half-maximal inhibition (IC50) in experiment [1] (Homo sapiens, NCI-H1975, 168 h) is 6330 nM; in experiment [2] (Homo sapiens, HPAC, 168 h) it was 299 nM.

On to `Cc1c(F)c(N)cc(-c2nc3c4c(nc(OCC5CC(F)C6CCCN56)nc4c2F)N2C[C@H]4CC[C@H](N4)[C@H]2[C@H](C)O3)c1C(F)(F)F` (single isomer, unassigned) [160 (diast. 1)], for which the IC50 in experiment [1] (Homo sapiens, NCI-H1975, 168 h) is 1000 nM; in experiment [2] (Homo sapiens, HPAC, 168 h), 8.07 nM.

Consider `Cc1c(F)c(N)cc(-c2nc3c4c(nc(OCC56CCCN5CC(F)C6)nc4c2F)N2CCNCC2C(C)O3)c1C(F)(F)F` (single isomer, unassigned) [235 (isomer 1)], for which the IC50 in experiment [1] (Homo sapiens, NCI-H1975, 168 h) stood at 4340 nM; in experiment [2] (Homo sapiens, HPAC, 168 h) it was 2420 nM.

Take `Cc1c(F)c(N)cc(-c2nc3c4c(nc(OC[C@@]56CCCN5C[C@H](F)C6)nc4c2F)N2CCNC[C@H]2C(C)O3)c1C(F)(F)F` (single isomer, unassigned) [235 (isomer 2)]: the IC50 came to 262 nM in experiment [1] (Homo sapiens, NCI-H1975, 168 h) and 136 nM in experiment [2] (Homo sapiens, HPAC, 168 h).

Take `Cc1c(F)c(N)cc(-c2nc3c4c(nc(OC[C@@]56CCCN5C[C@H](F)C6)nc4c2F)N2C[C@H]4CC[C@H](N4)C2C(C(F)F)O3)c1C(F)(F)F` (single isomer, unassigned) [238 (isomer 1)]: the IC50 amounted to 13500 nM in experiment [1] (Homo sapiens, NCI-H1975, 168 h) and 2000 nM in experiment [2] (Homo sapiens, HPAC, 168 h).

In the case of `Cc1nc(N)cc(-c2nc3c4c(nc(OC[C@@]56CCN5CC(F)(F)C6)nc4c2F)N2C[C@H]4CC[C@H](N4)[C@H]2[C@H](C(F)(F)F)O3)c1C(F)(F)F` (single isomer, unassigned) [252 (isomer 1)], the IC50 was determined as 7710 nM in experiment [1] (Homo sapiens, NCI-H1975, 168 h) and 20.4 nM in experiment [2] (Homo sapiens, HPAC, 168 h).

`Cc1nc(N)cc(-c2nc3c4c(nc(OCC56CCN5CC(F)(F)C6)nc4c2F)N2C[C@H]4CC[C@H](N4)[C@H]2[C@H](C(F)(F)F)O3)c1C(F)(F)F` (single isomer, unassigned) [252 (isomer 2)]: the IC50 is 20000 nM in experiment [1] (Homo sapiens, NCI-H1975, 168 h) and 119 nM in experiment [2] (Homo sapiens, HPAC, 168 h).

In the case of `Cc1nc(N)cc(-c2nc3c4c(nc(OCC56CCCN5CC(F)C6)nc4c2F)N2CC4CCC(N4)[C@H]2[C@@H](C(F)(F)F)O3)c1C(F)(F)F` (stereo in doubt) [Compound 243, 4-((6R,9S)-1-fluoro-12-(((2S,7aR)-2-fluorotetrahydro-1H-pyrrolizin-7a(5H)-yl)methoxy)-5-(trifluoromethyl)-5a,6,7,8,9,10-hexahydro-5H-4-oxa-3,10a,11,13,14-pentaaza-6,9-methanonaphtho[1,8-ab]heptalene-2-yl)-6-methyl-5-(trifluoromethyl)pyridin-2-amine], the 50% inhibitory concentration (IC50) is 20000 nM in experiment [1] (Homo sapiens, NCI-H1975, 168 h) and 2000 nM in experiment [2] (Homo sapiens, HPAC, 168 h).

On to `Cc1c(F)c(N)cc(-c2nc3c4c(nc(OC[C@]5(CN6CCOCC6)CC5(F)F)nc4c2F)N2C[C@H]4CC[C@H](N4)[C@H]2[C@H](C)O3)c1C(F)(F)F` [167 a], for which the IC50 turned out to be 1140 nM in experiment [1] and 1.58 nM in experiment [2].

Take `Cc1c(F)c(N)cc(-c2nc3c4c(nc(OC[C@@]56CCCN5C[C@H](F)C6)nc4c2F)N2C[C@H]4CC[C@H](N4)[C@H]2[C@H](C)O3)c1C=O` [Compound 59, 4-Amino-3-fluoro-6-((5S,5aS,6S,9R)-1-fluoro-12-(((2R,7aS)-2-fluorotetrahydro-1H-pyrrolizin-7a(5H)-yl)methoxy)-5-methyl-5a,6,7,8,9,10-hexahydro-5H-4-oxa-3,10a,11,13,14-pentaaza-6,9-methanonaphtho[1,8-ab]heptalen-2-yl)-2-methylbenzaldehyde]: the IC50 in experiment [1] (Homo sapiens, NCI-H1975, 168 h) turned out to be 10500 nM; in experiment [2] (Homo sapiens, HPAC, 168 h), 117 nM.

With `Cc1cc(N)cc(-c2nc3c4c(nc(OC[C@@H]5CC[C@H]6COCCN65)nc4c2F)N2C[C@H]4CC[C@H](N4)[C@H]2[C@H](C)O3)c1C(F)(F)F` [Compound 67, 3-((5S,5aS,6S,9R)-1-Fuoro-1-(((6S,8aS)-hexahydro-1H-pyrrolo[2,1-c][1,4]oxazin-6-yl)methoxy)-5-methyl-5a,6,7,8,9,10-hexahydro-5H-4-oxa-3,10a,11,13,14-pentaaza-6,9-methanonaphtho[1,8-ab]heptalen-2-yl)-5-methyl-4-(trifluoromethyl)aniline], the concentration for half-maximal inhibition (IC50) in experiment [1] (Homo sapiens, NCI-H1975, 168 h) came to 639 nM; in experiment [2] (Homo sapiens, HPAC, 168 h), 2.79 nM.

`Cc1cc(N)cc(-c2nc3c4c(nc(OC[C@@]56CCCN5CC5(CC5(F)F)C6)nc4c2F)N2C[C@H]4CC[C@H](N4)[C@H]2[C@H](C)O3)c1C(F)(F)F` (stereo partly drawn) [Compound 68, 3-((5S,5aS,6S,9R)-12-(((7a′S)-2,2-Difluorodihydro-1′H,3′H-spiro[cyclopropane-1,2′-pyrrolizin]-7a′(5′H)-yl)methoxy)-1-fluoro-5-methyl-5a,6,7,8,9,10-hexahydro-5H-4-oxa-3,10a,11,13,14-pentaaza[6,9]methanonaphtho[1,8-ab]heptalen-2-yl)-5-methyl-4-(trifluoromethyl)aniline]: the IC50 in experiment [1] (Homo sapiens, NCI-H1975, 168 h) was found to be 146 nM; in experiment [2] (Homo sapiens, HPAC, 168 h), 0.205 nM.

Take `C[C@@H]1Oc2nc(-c3cc(N)ccc3C(F)(F)F)c(F)c3nc(OC[C@@]45CCCN4C[C@H](F)C5)nc(c23)N2C[C@H]3CC[C@H](N3)[C@@H]12` [Compound 72, 3-((5S,5aS,6S,9R)-1-Fluoro-12-(((2R,7aS)-2-fluorotetrahydro-1H-pyrrolizin-7a(5H)-yl)methoxy)-5-methyl-5a,6,7,8,9,10-hexahydro-5H-4-oxa-3,10a,11,13,14-pentaaza-6,9-methanonaphtho[1,8-ab]heptalen-2-yl)-4-(trifluoromethyl)aniline]: the IC50 came to 1060 nM in experiment [1] (Homo sapiens, NCI-H1975, 168 h) and 3.16 nM in experiment [2] (Homo sapiens, HPAC, 168 h).

With `C[C@@H]1Oc2nc(-c3cc(N)c(F)cc3C(C)(F)F)c(F)c3nc(OC[C@@]45CCCN4C[C@H](F)C5)nc(c23)N2C[C@H]3CC[C@H](N3)[C@@H]12` [Compound 73, 4-(1,1-difluoroethyl)-2-fluoro-5-((5S,5aS,6S,9R)-1-fluoro-12-(((2R,7aS)-2-fluorotetrahydro-1H-pyrrolizin-7a(5H)-yl)methoxy)-5-methyl-5a,6,7,8,9,10-hexahydro-5H-4-oxa-3,10a,11,13,14-pentaaza-6,9-methanonaphtho[1,8-ab]heptalen-2-yl)aniline], the IC50 in experiment [1] (Homo sapiens, NCI-H1975, 168 h) is 4090 nM; in experiment [2] (Homo sapiens, HPAC, 168 h) it was 16.3 nM.

`Cc1cc(N)cc(-c2nc3c4c(nc(OC[C@@]56CCCN5C[C@H](F)C6)nc4c2F)N2C[C@H]4CC[C@H](N4)[C@H]2[C@H](C)O3)c1Cl` [Compound 74, 4-Chloro-3-((5S,5aS,6S,9R)-1-fluoro-12-(((2R,7aS)-2-fluorotetrahydro-1H-pyrrolizin-7a(5H)-yl)methoxy)-5-methyl-5a,6,7,8,9,10-hexahydro-5H-4-oxa-3,10a,11,13,14-pentaaza-6,9-methanonaphtho[1,8-ab]heptalen-2-yl)-5-methylaniline]: the IC50 in experiment [1] (Homo sapiens, NCI-H1975, 168 h) was found to be 2040 nM; in experiment [2] (Homo sapiens, HPAC, 168 h), 5.7 nM.

Turning to `C[C@@H]1Oc2nc(-c3cc(O)cc4ccc(F)c(F)c34)c(F)c3nc(OC[C@@]45CCCN4C[C@H](F)C5)nc(c23)N2C[C@H]3CC[C@H](N3)[C@@H]12` [Compound 82, 5,6-Difluoro-4-((5S,5aS,6S,9R)-1-fluoro-12-(((2R,7aS)-2-fluorotetrahydro-1H-pyrrolizin-7a(5H)-yl)methoxy)-5-methyl-5a,6,7,8,9,10-hexahydro-5H-4-oxa-3,10a,11,13,14-pentaaza-6,9-methanonaphtho[1,8-ab]heptalen-2-yl)naphthalen-2-ol], the IC50 in experiment [1] (Homo sapiens, NCI-H1975, 168 h) amounted to 20000 nM; in experiment [2] (Homo sapiens, HPAC, 168 h) it was 20000 nM.

Turning to `C[C@@H]1Oc2nc(-c3cc(N)cc4c3CCC4)c(F)c3nc(OC[C@@]45CCCN4C[C@H](F)C5)nc(c23)N2C[C@H]3CC[C@H](N3)[C@@H]12` [Compound 83, 7-((5S,5aS,6S,9R)-1-Fluoro-12-(((2R,7aS)-2-fluorotetrahydro-1H-pyrrolizin-7a(5H)-yl)methoxy)-5-methyl-5a,6,7,8,9,10-hexahydro-5H-4-oxa-3,10a,11,13,14-pentaaza-6,9-methanonaphtho[1,8-ab]heptalen-2-yl)-2,3-dihydro-1H-inden-5-amine], the IC50 in experiment [1] (Homo sapiens, NCI-H1975, 168 h) was determined as 2230 nM; in experiment [2] (Homo sapiens, HPAC, 168 h), 23.7 nM.

Take `Cc1cc(N)c(F)c(-c2nc3c4c(nc(OC[C@@H]5CC[C@H]6COCCN65)nc4c2F)N2C[C@H]4CC[C@H](N4)[C@H]2[C@H](C)O3)c1C1CC1` [Compound 98, 4-Cyclopropyl-2-fluoro-3-((5S,5aS,6S,9R)-1-fluoro-12-(((6S,8aS)-hexahydro-1H-pyrrolo[2,1-c][1,4]oxazin-6-yl)methoxy)-5-methyl-5a,6,7,8,9,10-hexahydro-5H-4-oxa-3,10a,11,13,14-pentaaza-6,9-methanonaphtho[1,8-ab]heptalen-2-yl)-5-methylaniline]: the IC50 was 2750 nM in experiment [1] (Homo sapiens, NCI-H1975, 168 h) and 26.2 nM in experiment [2] (Homo sapiens, HPAC, 168 h).
